test system: P. falciparum 3D7 growth, pLDH absorbance; experiment: P. falciparum 3D7 growth inhibition, dose response, strain 3D7 (AID 2305)

SMILES	IC50 [nM]
Cc1ncc(CN2CCC(C(=O)Nc3ccc(-c4nc5ccccc5o4)cc3)CC2)s1	390
Cc1onc(-c2c(Cl)cccc2Cl)c1C(=O)N1CCc2cc3nccc(N4CCN5CCC[C@H]5C4)c3cc21	770
NC(=NCCc1ccc(Cl)cc1)c1ccc(Cl)c(Cl)c1	1100
Nc1nc(N)c2cc(NC(=O)c3ccc(Cl)c(Cl)c3)ccc2n1	150
O=C(N[C@H]1CCN(CCc2ccc(O[C@H]3CCNC3)c(Cl)c2)C1)c1ccc(Cl)c(Cl)c1	890
Cc1ccccc1C1CCN(C2CCC(NC(=O)/C=C/c3ccc(F)cc3)CC2)CC1 (centres undefined)	1340
Cc1cccc2[nH]c(-c3ccc(-c4ccc(NC(=O)Nc5ccsc5)cc4)cc3)nc12	170
O=C(Nc1ccc(Br)cc1)c1cc(Br)ccc1NS(=O)(=O)c1cc(C(F)(F)F)cc(C(F)(F)F)c1	880
Clc1ccccc1CCNCC1CCN(CC2CCCCC2)CC1	690
Cc1cc(-c2cccc(CNC3CCN(C)CC3)c2)ccc1S(=O)(=O)NC1CCC1	730
CN(C(=O)OCc1ccccc1)C1CCC(CCN2CCC3(CC2)C(=O)NCN3c2cccc(C(F)(F)F)c2)(c2ccccc2)CC1 (centres undefined)	1180
CCc1c[nH]c2c(N3CCCCS3(=O)=O)cc(C(=O)N[C@@H](Cc3ccccc3)[C@H](O)CNCc3cccc(OC)c3)cc12	910
O=C(Nc1ccc(-c2nc3ccccc3[nH]2)cc1)c1ccc(Cl)c([N+](=O)[O-])c1	800
Cc1cc(N)nc2cc(CNCCc3ccccc3Br)ccc12	130
O=C(C=Cc1ccc(Cl)c(Cl)c1)NCCCCCN1CCC(CCNC(=O)C(c2ccccc2)c2ccccc2)CC1	1010
COc1ccccc1CNC(=O)c1ccc(N2CCN(c3ccncc3)CC2)cn1	1360
COC(=O)c1cccc(OCCNC2CCN(C[C@H](O)c3ccnc4ccc(OC)cc34)CC2)c1	340
O=C(Nc1ccc(OC2CCN(Cc3ccsc3)C2)c(Cl)c1)c1ccc(F)cc1 (centres undefined)	940
Brc1cccc(Nc2nccc(Nc3ccc(Oc4ccccc4)cc3)n2)c1	1010
CCOc1ccc(C(=O)Nc2cc(Cl)ccc2O)cc1Cl	700
Nc1c(Cl)cc(C(O)CNCCCCCOCCCc2ccc(O)c3ncccc23)cc1Cl (centres undefined)	990
COc1ccc(-c2nonc2NC(=O)c2cccc(Cl)c2)cc1OC	880
CCCNCc1ccc(-c2ccc(CN(Cc3cccs3)C(=O)C3CCN(C)CC3)cc2)nc1	660
O=C(Nc1ccc(Cl)c(Cl)c1)Nc1ccc2nccc(N3CCN(Cc4ccccc4)CC3)c2c1	160
COc1cc(Cc2cnc(N)nc2N)cc(OCCCCCCC(=O)O)c1OC	940

SMILES	IC50 [nM]
CCCCNC(c1ccc(Cl)cc1)C(O)c1ccc(Cl)cc1 (centres undefined)	620
Cc1csc(NC2=NCCN2)n1	470
CCCCCCCCc1c(C)[nH]c(C)c(Cl)c1=O	230
CN(Cc1ccccc1)C1CCN(c2cc(NC(=O)c3cccc(F)c3)ccn2)CC1	1510
CN1CCN(c2ccc(-c3nc4c(C(N)=O)c(OCc5cc(Cl)cc(Cl)c5)ccc4[nH]3)cc2)CC1	660
CC1CCCN(S(=O)(=O)c2cc(Br)cc3c2N(C(=O)C2CC2)CC3)C1 (centres undefined)	720
NC(N)=NC(=O)Nc1cc(Br)c(Br)c(Br)c1	810
COC(=O)c1ccc(CC(C)NCC(O)c2cccc(C(F)(F)F)c2)cc1C (centres undefined)	970
Cc1ccc(F)cc1-c1cc(N2CCCN(C(=O)c3ccc(Br)o3)CC2)ncn1	1430
COc1cccc2c(NCCNc3ccnc4c(OC)cccc34)ccnc12	270
N#Cc1ccc(S(=O)(=O)N2C(c3cccc([N+](=O)[O-])c3)C(C(=O)c3ccccc3)N(C3CCCCC3)C2c2cccc([N+](=O)[O-])c2)cc1 (centres undefined)	1080
COC(=O)/C=C/c1ccc(CC(C)NCC(O)c2cccc(Br)c2)cc1 (centres undefined)	720
CCN(CCCN1CCCCC1)c1cc(C)nc(Nc2cc(F)cc(F)c2)n1	570
O=C(Nc1ccccc1)N(Cc1ccccc1-c1cccc(CNCc2ccc3c(c2)OCO3)c1)C1CCN(Cc2ccccc2)CC1	110
COc1cc(CNCCCNc2nc3ccsc3c(=O)[nH]2)c2[nH]cc(Cl)c2c1	890
CC(=O)Nc1ccccc1OCc1cc2cc(C(=O)N3CCC(N4C(=O)OCc5ccccc54)CC3)ccc2o1	240
Cn1nccc1C(=O)NCCNCc1cccc(-c2csc(-c3nc4ccccc4[nH]3)c2)c1	840
CN1CCC(Oc2ccc(CN3CC[C@H](NC(=O)c4ccc(Cl)c(Cl)c4)C3)c3ccccc23)C1 (some centres undefined)	880
CC(C)c1ccc2oc(-c3ccc(NC(=O)c4ccc([N+](=O)[O-])o4)cc3)nc2c1	340
O=C(NC(=S)NCc1ccncc1)c1ccccc1	1690
Cc1cc(N2CCCC2)nc(Nc2ccc(NC(=O)C(C)(C)C)cc2)n1	1070
CC(C)C1C(O)=C(c2ccc3ccccc3c2)C(=O)N1Cc1ccsc1 (centres undefined)	1070
Cc1nn(CCOC(=O)NC(NCC2COc3ccccc3O2)C(Cl)(Cl)Cl)cc1[N+](=O)[O-] (centres undefined)	920
Fc1ccc2nc(-c3cccc(-c4ccc(CN5CCN(c6ccncc6)CC5)cc4)c3)[nH]c2c1	210
CCOC(=O)c1ccc(NC(=O)Nc2ccc(-c3cccc(-c4nc5ccccc5[nH]4)c3)cc2)cc1	140

SMILES	IC50 [nM]
C[C@H](Cc1ccc(OCCCCCOc2ccc(C[C@@H](C)NC[C@H](O)c3cccc(Cl)c3)cc2)cc1)NC[C@H](O)c1cccc(Cl)c1	190
NC1=Nc2ccc(Cl)cc2C1(O)c1ccccc1 (centres undefined)	880
CCCCCCN(C(=O)OCc1ccccc1)[C@@H]1CCN(C(=O)OC(C)(C)C)C[C@H]1C(=O)OCC	370
O=C(N[C@@H](CC1CCCCC1)C(=O)NC1CCCCCC1)c1ccc(O)c(-c2ccc(Cl)c(Cl)c2)c1	100
Cc1cc(N2CC=CCC2)nc(/N=C(\N)Nc2ccc(Cl)cc2)n1	780
CCCCCCCN(Cc1ccc(OC(C)(C)C(=O)OCC)cc1)C(=O)Cc1ccc(F)cc1F	1030
CCCCCCCn1c(=N)n(CC(O)c2ccc(Cl)c(Cl)c2)c2ccccc21 (centres undefined)	780
Cc1ccc(Oc2ccccc2NC(=O)CCc2nc3ccccc3c(=O)[nH]2)cc1	830
COc1ccc(Cn2c(=O)[nH]c3cc(C(=O)NC4CCN(Cc5ccccc5)CC4)ccc3c2=O)cc1	750
CCN(CC1CCN(CC2(O)CCOCC2)CC1)c1cc(C)nc(Nc2ccc(Cl)cc2)n1	410
O=C(NC1CCN(Cc2ccccc2)C1)c1ccc(Nc2ccc(Br)cc2)nc1 (centres undefined)	1080
O=C(Nc1ccc(-c2cncc(NCCCN3CCCC3)c2)cc1)c1ccccc1	940
Cc1ccc2c(NN=Cc3ccc(Cl)cc3)cc(C)nc2c1	950
CN(C)CCOc1ccc2[nH]c(-c3cccc(OCc4ccccc4)c3)nc2c1C#N	260
Nc1cccc(C=CC(=O)Nc2ccnc3ccccc23)c1	1060
CN(C)Cc1cccc2[nH]c(-c3csc(Cc4cc(Cl)ccc4OCc4ccccc4)n3)nc12	1120
CCNc1cc(C(=O)N[C@@H](Cc2ccc(Cl)cc2)[C@H](O)CNC2CCCCC2)cc(N2CCCCS2(=O)=O)c1	150
O=C1OC2(CN1CC1CCN(Cc3ccc(O)cc3Cl)C1)c1ccccc1-c1ccccc12 (centres undefined)	1170
CC(C)(C)c1ccc(NC(=O)c2ccc(CN3CCCN(Cc4ccsc4)CC3)cc2)cc1	720
Cc1ccc(NC(=O)Nc2ccc(Cl)c(C(F)(F)F)c2)cc1-c1ccc(C(=O)Nc2ccncc2)cc1	260
CC(C)CNCc1ccc(-c2ccc(CN(C(=O)NC3CCCCC3)C3CCN(Cc4ccccc4)CC3)cc2)cc1	780
NC(=O)c1ccccc1OCC(=O)Nc1cccc(-c2cccc(-c3nc4ccccc4[nH]3)c2)c1	380
N#Cc1ccc2c(c1)CN(CCC1CCC(NC(=O)c3cc4ccccc4cc3N)CC1)CC2 (centres undefined)	1040
COc1cccc(NC(=O)Nc2c(-c3cccc(C(F)(F)F)c3)c(C(F)(F)F)nn2C)c1	910
O=C(/C=C/c1ccc(Cl)c(Cl)c1)NCCCCCCN1CCCN(C(=O)Nc2ccc(Cl)c(C(F)(F)F)c2)CC1	560

SMILES	IC50 [nM]
Nc1cccc(CNCc2ccc(-c3cccc(-c4nc5ccccc5[nH]4)c3)cc2)c1	710
CN(C)CCOc1ccc(-c2cc(-c3ccncc3)c(-c3ccc(Cl)c(O)c3)[nH]2)cc1	220
CCCCN1CCN(c2cc(NS(=O)(=O)c3cccc(C(=O)Nc4ccc(C(F)(F)F)cc4)c3)ccc2OC)CC1	690
CCCCCc1cc(O)c2c(c1)OC(C)(C)c1ccncc1-2	760
CS(=O)(=O)c1cccc(-c2cnc3[nH]cc(-c4ccc(C(=O)O)cc4)c3c2)c1	340
O=C(/C=C/C=C/c1ccc(Cl)c(Cl)c1)NCCCCCN1CCCC2CCCCC21 (centres undefined)	950
COc1ccccc1Nc1nc(NC2CCN(C)CC2)cc(-c2cccc(C(F)(F)F)c2)n1	920
CC(CCCCOCCc1ccccc1)NCC(O)c1cc(Cl)c(N)c(Cl)c1 (centres undefined)	790
O=C(C=Cc1ccc(Cl)c(Cl)c1)NCCCCCN1CCCC(CCCNS(=O)(=O)c2ccc(Br)cc2)C1 (centres undefined)	960
CN(C)Cc1cccc(-c2ccc3ccnc(N)c3c2)c1	120
CN(CCCCCNC(=O)/C=C/c1ccc(Cl)c(Cl)c1)CCCCc1c[nH]c2ccccc12	1080
COc1ccc(-c2ccc(NC(=O)c3cccc(C#N)c3)cc2)cc1CN1CCN(C)CC1	710
COc1ccc(CNC(=O)c2cnc3cc(-c4c(C)noc4C)ccc3c2Nc2ccccc2C(C)(C)C)cc1	1300
COc1ccc(CNCc2ccccc2)cc1-c1ccc(S(=O)(=O)NCCN2CCCC2)s1	670
O=C(Nc1cccc(CN2CCCN(CC3CC3)CC2)c1)c1ccc(-c2ccccc2)cc1	930
CCCCc1cc(NCc2ccncc2)nc(Nc2ccc(C)cc2)n1	790
CC1(C)CC(NC(=O)NC2CCN(Cc3ccccc3)CC2)CC(C)(CNC(=O)NC2CCN(Cc3ccccc3)CC2)C1 (centres undefined)	950
Cc1ccc(C(=O)N2CCc3cc4nccc(N5CCN6CCC[C@H]6C5)c4cc32)cc1	1100
COc1ccc(NC(=O)N2CCc3ccc(OCCN(C(C)C)C(C)C)cc32)cc1C(F)(F)F	970
COc1ccccc1C1CCN(C2CCC(NC(=O)/C=C/c3cccc(C(F)(F)F)c3)CC2)CC1 (centres undefined)	810
N#Cc1cccc(C(=O)Nc2cccc(-c3ccc(CN4CCCC4)cc3)c2)c1	700
O=C(Cc1ccccc1)NC1CCN(c2ccnc3cc(Cl)ccc23)C1 (centres undefined)	800
CN(C)CCCSc1ccccc1NC(=O)C=Cc1ccccc1	960
O=C(c1ccco1)c1cn(CCOc2ccccc2)c2ccccc12	750
